Test results: US20100036088A1, “Selective poly-N-substituted glycine antibiotics” (priority 2008, published 2010)
Read-outs that look alike come from different tables or passages of the source. Square brackets hold non-standard residues; d marks the D form. Peptide text beside a SMILES is read from it. Nspe = C[C@H](NCC(=O)O)c1ccccc1; NDecylGly = CCCCCCCCCCNCC(=O)O; NPentylGly = CCCCCNCC(=O)O; Nlys = NCCCCNCC(=O)O

Experiments:
B. subtilis = format: cell-based
Experimental: (§1) Antibacterial assays. MICs were determined according to CLSI M7-A6 protocols in a 96-well microtiter plate. In test wells, 50 μL bacterial inoculum (5×10^5 CFU/ml) in Mueller-Hinton broth (MHB) was added to 50 μL peptoid solution in MHB (prepared by 1:2 serial dilutions). Positive controls contained 50 μL inoculum and 50 μL MHB without peptoid. […] MIC values reported were reproducible between three independent experimental replicates, each consisting of two parallel trials. Broad-spectrum antimicrobial susceptibility testing was performed against BSL2 pathogens by Nova Biologicals, Inc. (Conroe, Tex.).
(§2) Screening antibacterial assays. MICs were determined in 96-well microtiter plates in accordance with CLSI M7-A6 protocols. Peptoid solutions with 50 μL total volume were prepared using 2:1 serial dilutions. 50 μL of bacteria inoculum (1×10^6 CFU/mL) prepared in cation-adjusted Mueller-Hinton broth (CAMHB) was added to test wells. Control wells contained 100 μL MHB (no growth) or 50 μL inoculums with 50 μL MHB with no peptoid. […] Reported values were reproducible over three experiments, each containing two parallel trials.

E. coli = format: cell-based
Experimental: as §1, §2

[1] = test system: Candida albicans (SC5314); format: cell-based, C. albicans
Experimental: Additionally, in order to characterize possible antifungal activity, a library of alkylated compounds was tested against C. albicans, a representative fungal strain.
Antifungal Assays. MICs were determined using the broth microdilution assay given by CLSI M27-A2 protocols. Candida albicans (SC5314) was grown on Sabouraud dextrose agar for 24 hours at 30° C. Cells were suspended in 0.145 M saline, and the cell concentration was adjusted to 3×10^6 cells/mL. After adjusting the cell concentration, the suspension was diluted 1:1000 with RPMI 1640 (with L-glutamine and without sodium bicarbonate, Invitrogen) buffered with 0.145 M 3-(N-morpholino) propanesulfonic acid (MOPS). Two-fold serial dilutions of peptoids, peptides, and amphotericin B (Calbiochem) were prepared in RPMI 1640 and mixed with an equal volume of the cell suspension in 96-well plates. The final testing concentrations for the peptoids and peptides were 0.20 to 100 μM, and concentrations for amphotericin B were 0.031 to 16 μM. Growth controls and sterility controls were also included. Plates were incubated for 48 hours at 35° C., and growth of C. albicans was inspected visually to determine the MICs. The MIC for each compound was defined as the lowest concentration with no visible fungal growth. Experiments were performed in duplicate on two separate days.

human erythrocytes = assay: Hemolysis assay; format: cell-based
Procedure, shortened: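 Peptoid serial dilutions in PBS pH 7.4 were combined with an equal volume of 20 vol % washed human red cells (heparinised blood) for 1 h at 37 °C. After dilution and pelleting at 1200 g, released haemoglobin in supernatant was read at A350, scaled between PBS and 0.2 vol % Triton X-100 controls.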

Row | SMILES | B. subtilis MIC (B. subtilis) [µM] | E. coli MIC (E. coli) [µM] | C. albicans MIC ([1]; SC5314, 48 h) [µM] | C. albicans MIC ([1]; SC5314) [µM] | HD10 (human erythrocytes) | HD50 (human erythrocytes) | HD10 (10% hemolytic dose) (human erythrocytes; red cells of human, 1 h) | HD50 (50% hemolytic dose) (human erythrocytes; red cells of human, 1 h)
1 | C[C@@H](c1ccccc1)N(CC(N)=O)C(=O)CN(C(=O)CN(CCCCN)C(=O)CN(C(=O)CN(C(=O)CN(CCCCN)C(=O)CN(C(=O)CN(C(=O)CNCCCCN)[C@@H](C)c1ccccc1)[C@@H](C)c1ccccc1)[C@@H](C)c1ccccc1)[C@@H](C)c1ccccc1)[C@@H](C)c1ccccc1 [19 mer, H-(Nlys-Nspe-Nspe)3-NH2] (H-[Nlys][Nspe][Nspe][Nlys][Nspe][Nspe][Nlys][Nspe][Nspe]-NH2) | 1.6 | 25 | 15.6 | – | 150 µM | > 200 µM | >150/>150 μM | >150/>150 μM
2 | CCCCCNCC(=O)N(CCCCN)CC(=O)N(CC(=O)N(CC(=O)N(CCCCN)CC(=O)N(CC(=O)N(CC(=O)N(CCCCN)CC(=O)N(CC(=O)N(CC(=O)N(CCCCN)CC(=O)N(CC(=O)N(CC(N)=O)[C@@H](C)c1ccccc1)[C@@H](C)c1ccccc1)[C@@H](C)c1ccccc1)[C@@H](C)c1ccccc1)[C@@H](C)c1ccccc1)[C@@H](C)c1ccccc1)[C@@H](C)c1ccccc1)[C@@H](C)c1ccccc1 [C5-1] (H-[NPentylGly][Nlys][Nspe][Nspe][Nlys][Nspe][Nspe][Nlys][Nspe][Nspe][Nlys][Nspe][Nspe]-NH2) | 1.6 | 6.3 | – | 6.3 | 10 µM | 40 µM | – | –
3 | CCCCCNCC(=O)N(CCCCN)CC(=O)N(CC(=O)N(CC(=O)N(CCCCN)CC(=O)N(CC(=O)N(CC(N)=O)[C@@H](C)c1ccccc1)[C@@H](C)c1ccccc1)[C@@H](C)c1ccccc1)[C@@H](C)c1ccccc1 [C5-16 mer] (H-[NPentylGly][Nlys][Nspe][Nspe][Nlys][Nspe][Nspe]-NH2) | 3.1 | >200 | – | 100 | >200/>200 μM | >200/>200 μM | – | –
4 | CCCCCNCC(=O)N(CCCCN)CC(=O)N(CC(=O)N(CC(=O)N(CCCCN)CC(=O)N(CC(=O)N(CC(=O)N(CCCCN)CC(=O)N(CC(=O)N(CC(N)=O)[C@@H](C)c1ccccc1)[C@@H](C)c1ccccc1)[C@@H](C)c1ccccc1)[C@@H](C)c1ccccc1)[C@@H](C)c1ccccc1)[C@@H](C)c1ccccc1 [C5-19 mer] (H-[NPentylGly][Nlys][Nspe][Nspe][Nlys][Nspe][Nspe][Nlys][Nspe][Nspe]-NH2) | 1.0 | 16.3 | – | 12.5 | 65 µM | > 200 µM | – | –

Now from value to molecule, other results behind:

Row | B. subtilis MIC (B. subtilis) [µM] | E. coli MIC (E. coli) [µM] | C. albicans MIC ([1]; SC5314, 48 h) [µM] | C. albicans MIC ([1]; SC5314) [µM] | SMILES | HD10 (human erythrocytes) | HD50 (human erythrocytes) | HD10 (10% hemolytic dose) (human erythrocytes; red cells of human, 1 h) | HD50 (50% hemolytic dose) (human erythrocytes; red cells of human, 1 h)
5 | 1.6 | 12.5 | – | 1.6 | CCCCCCCCCCNCC(=O)N(CCCCN)CC(=O)N(CC(=O)N(CC(=O)N(CCCCN)CC(=O)N(CC(=O)N(CC(=O)N(CCCCN)CC(=O)N(CC(=O)N(CC(=O)N(CCCCN)CC(=O)N(CC(=O)N(CC(N)=O)[C@@H](C)c1ccccc1)[C@@H](C)c1ccccc1)[C@@H](C)c1ccccc1)[C@@H](C)c1ccccc1)[C@@H](C)c1ccccc1)[C@@H](C)c1ccccc1)[C@@H](C)c1ccccc1)[C@@H](C)c1ccccc1 [C10-1] (H-[NDecylGly][Nlys][Nspe][Nspe][Nlys][Nspe][Nspe][Nlys][Nspe][Nspe][Nlys][Nspe][Nspe]-NH2) | 8 µM | 27 µM | – | –
6 | 6.3 | >100 | – | 100 | CCCCCCCCCCNCC(=O)N(CCCCN)CC(=O)N(CC(=O)N(CC(=O)N(CCCCN)CC(N)=O)[C@@H](C)c1ccccc1)[C@@H](C)c1ccccc1 [C10-14 mer] (H-[NDecylGly][Nlys][Nspe][Nspe][Nlys]-NH2) | >200/>200 μM | >200/>200 μM | – | –
7 | 1.6 | 6.3 | – | 6.25 | CCCCCCCCCCNCC(=O)N(CCCCN)CC(=O)N(CC(=O)N(CC(=O)N(CCCCN)CC(=O)N(CC(=O)N(CC(N)=O)[C@@H](C)c1ccccc1)[C@@H](C)c1ccccc1)[C@@H](C)c1ccccc1)[C@@H](C)c1ccccc1 [C10-16 mer] (H-[NDecylGly][Nlys][Nspe][Nspe][Nlys][Nspe][Nspe]-NH2) | 30 µM | 80 µM | – | –
8 | 3.1 | 6.3 | – | 3.1 | CCCCCCCCCCNCC(=O)N(CCCCN)CC(=O)N(CC(=O)N(CC(=O)N(CCCCN)CC(=O)N(CC(=O)N(CC(=O)N(CCCCN)CC(=O)N(CC(=O)N(CC(N)=O)[C@@H](C)c1ccccc1)[C@@H](C)c1ccccc1)[C@@H](C)c1ccccc1)[C@@H](C)c1ccccc1)[C@@H](C)c1ccccc1)[C@@H](C)c1ccccc1 [C10-19 mer] (H-[NDecylGly][Nlys][Nspe][Nspe][Nlys][Nspe][Nspe][Nlys][Nspe][Nspe]-NH2) | 12 µM | 40 µM | – | –
